Data from patent US12319655B2, “RAF kinase inhibitors and methods of use thereof” (Deciphera Pharmaceuticals, LLC, priority 2021, dated 2025).

Experiments:
[1] = test system: WM3928 cells; experiment: WM3928 Cell Proliferation Assay (1); format: cell-based
Method in brief: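 IC50 was derived from resazurin fluorescence (ex 540, em 600 nm) after a 6–7 h dye incubation. Before that, cells had 67–72 h of compound exposure at 37 °C, 5% CO2.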

[2] = molecular target: C-Raf kinase (SEQ. ID NO: 3) (Homo sapiens (Human), UniProt P04049, Y340D/Y341D); experiment: Biochemical Assay for C-Raf (1); details: Table J, assay version (1); read-out: CRAF (1) IC50
Method in brief: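 IC50 values come from a four-parameter fit of percent inhibition, using the reaction rate over 4–5 h of a 6 h continuous 340 nm read at 30 °C. The enzyme mix was C-Raf 0.43 nM, MEK substrate 30.1 nM and ATP 1 mM, in a PK/LDH NADH-coupled format in Tris pH 7.5 with 1% DMSO.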

[3] = test system: A375 cells; experiment: A375 Cell Proliferation Assay (1); format: cell-based; details: Homo sapiens, A-375
Method in brief: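 Resazurin fluorescence (excitation 540 nm, emission 600 nm, after a further 5-6 h) gave IC50s from triplicate compound dilution series.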

[4] = molecular target: B-Raf kinase (SEQ. ID NO: 2) (Homo sapiens (Human), UniProt P15056); experiment: Biochemical Assay for B-Raf (1); details: Table J, assay version (1); read-out: BRAF (1) IC50
Method in brief: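 IC50 derived by four-parameter sigmoidal fit of percent inhibition, normalised to uninhibited and reference-inhibitor controls, using reaction rates over 4–5 h. Coupled spectrophotometric readout (NADH loss at 340 nm, 6 h, 30° C.); 1 mM ATP, 30.1 nM MEK, 0.13 nM B-Raf, pH 7.5 Tris buffer, 1% DMSO.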

Chain of B-Raf kinase (SEQ. ID NO: 2) (P15056 416-766): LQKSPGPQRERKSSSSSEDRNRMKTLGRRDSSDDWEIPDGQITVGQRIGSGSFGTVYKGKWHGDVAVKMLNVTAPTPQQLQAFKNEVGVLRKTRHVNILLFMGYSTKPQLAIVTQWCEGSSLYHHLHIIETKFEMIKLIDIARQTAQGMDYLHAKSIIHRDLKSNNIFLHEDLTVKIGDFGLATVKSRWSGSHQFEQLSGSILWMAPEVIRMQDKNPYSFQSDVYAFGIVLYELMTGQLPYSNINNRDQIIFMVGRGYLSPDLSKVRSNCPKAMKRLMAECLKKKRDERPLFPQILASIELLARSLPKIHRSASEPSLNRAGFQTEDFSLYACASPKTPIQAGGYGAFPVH
Chain of C-Raf kinase (SEQ. ID NO: 3) (P04049 307-648 Y340D/Y341D): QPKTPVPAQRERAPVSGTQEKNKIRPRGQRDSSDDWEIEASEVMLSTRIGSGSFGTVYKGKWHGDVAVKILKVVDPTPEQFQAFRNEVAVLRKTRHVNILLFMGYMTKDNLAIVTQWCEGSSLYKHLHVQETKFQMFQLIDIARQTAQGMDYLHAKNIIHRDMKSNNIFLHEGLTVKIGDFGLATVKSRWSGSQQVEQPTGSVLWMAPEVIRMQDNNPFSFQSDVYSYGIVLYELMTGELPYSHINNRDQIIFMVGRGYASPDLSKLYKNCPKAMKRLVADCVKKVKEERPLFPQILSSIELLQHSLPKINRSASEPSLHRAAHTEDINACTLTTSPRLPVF

## CNC(=O)c1cc(-c2cc(-c3cc(NC(=O)c4ccnc(C5(C#N)CC5)c4)ccc3C)ncn2)ccn1 [Example 178]
[1]
  IC50: ≤ 0.1 µM
[2]
  IC50: ≤ 0.1 µM
[3]
  IC50: 0.1 to 0.5 µM
[4]
  IC50: ≤ 0.1 µM

## Cc1cc(F)c(NC(=O)c2ccnc(C(C)(C)C#N)c2)cc1-c1ccnc(-c2ccnc(NC(=O)C3CC3)c2)n1 [Example 179]
[1]
  IC50: ≤ 0.1 µM
[2]
  IC50: ≤ 0.1 µM
[3]
  IC50: ≤ 0.1 µM
[4]
  IC50: ≤ 0.1 µM

## Cc1ccc(NC(=O)c2ccnc(C3(C#N)CC3)c2)cc1-c1ccnc(-c2ccnc(NC(=O)C3CC3)c2)n1 [Example 180]
[1]
  IC50: ≤ 0.1 µM
[2]
  IC50: ≤ 0.1 µM
[3]
  IC50: ≤ 0.1 µM
[4]
  IC50: ≤ 0.1 µM

## Cc1ncc(NC(=O)c2ccnc(C(C)(C)C#N)c2)cc1-c1cccc(-c2cc(NC(=O)C3CC3)ncn2)c1 [Example 181]
[1]
  IC50: ≤ 0.1 µM
[2]
  IC50: ≤ 0.1 µM
[3]
  IC50: ≤ 0.1 µM
[4]
  IC50: ≤ 0.1 µM

## CCC(=O)Nc1cc(-c2cccc(-c3cc(NC(=O)c4ccnc(C(C)(C)C#N)c4)cnc3C)n2)ccn1 [Example 182]
[1]
  IC50: ≤ 0.1 µM
[2]
  IC50: ≤ 0.1 µM
[3]
  IC50: 0.1 to 0.5 µM
[4]
  IC50: 0.1 to 0.5 µM

## Cc1ccc(NC(=O)c2ccnc(C3CC3)c2)cc1-c1cncc(-c2ccnc(NC(=O)C3CC3)c2)n1 [Example 184]
[1]
  IC50: ≤ 0.1 µM
[2]
  IC50: ≤ 0.1 µM
[3]
  IC50: ≤ 0.1 µM
[4]
  IC50: ≤ 0.1 µM
